Tests used:
[1] = target: T1, LTD4 receptor (Cavia porcellus, UniProt Q2NNR5); test: LTD4 antagonistic effects: LTD4-induced constriction of isolated guinea pig ileum preparations; assay type: cell-based; settings: LTD4 0.05-3.5 ng/ml cumulative, 5 min pre-treatment, Van Rossum's method
T1 construct: the ilea were excised and made into ileum preparations; from tissue; host or cells: guinea pig ileum
T1 sequence (Q2NNR5 1-340): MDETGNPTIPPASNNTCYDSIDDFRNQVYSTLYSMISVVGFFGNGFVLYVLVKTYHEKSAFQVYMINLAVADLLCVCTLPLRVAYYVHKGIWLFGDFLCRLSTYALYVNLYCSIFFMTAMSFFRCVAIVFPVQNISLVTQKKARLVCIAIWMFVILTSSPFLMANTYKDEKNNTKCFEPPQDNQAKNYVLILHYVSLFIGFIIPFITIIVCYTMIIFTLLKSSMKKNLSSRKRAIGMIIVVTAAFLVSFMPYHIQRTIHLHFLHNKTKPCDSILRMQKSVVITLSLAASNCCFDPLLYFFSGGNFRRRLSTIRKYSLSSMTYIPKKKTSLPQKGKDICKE
Experimental: (§1) Guinea pigs were bled to death, and the ilea were excised and made into ileum preparations. The ileum preparations were suspended with a 1 g load in Magnus tubes filled with 2 ml Tyrode solution maintained at 37° C. under aeration with a 95% O2-5% CO2 gas mixture, and LTD4-induced constrictions were isotonically recorded.
(§2) After equilibration of the tonuses of the ilea, constrictive responses to cumulative addition of 0.05-3.5 ng/ml LTD4 were observed. After the constrictive responses reached equilibrium, LTD4 was added again cumulatively 5 minutes after pre-treatment with a test substance to induce constriction. The pA2 values were calculated in accordance with Van Rossum's method.

[2] = target: T2, TXA2 receptor (Cavia porcellus, UniProt A0A286Y4I8); test: TXA2 antagonistic effects: U-46619-induced constriction of isolated guinea pig tracheal muscle strips; assay type: cell-based; settings: U-46619 cumulative, 5 min pre-treatment, Van Rossum's method
T2 construct: the tracheae were excised and made into tracheal muscle strips; from tissue; host or cells: guinea pig tracheal muscle strips
T2 sequence (A0A286Y4I8 1-347): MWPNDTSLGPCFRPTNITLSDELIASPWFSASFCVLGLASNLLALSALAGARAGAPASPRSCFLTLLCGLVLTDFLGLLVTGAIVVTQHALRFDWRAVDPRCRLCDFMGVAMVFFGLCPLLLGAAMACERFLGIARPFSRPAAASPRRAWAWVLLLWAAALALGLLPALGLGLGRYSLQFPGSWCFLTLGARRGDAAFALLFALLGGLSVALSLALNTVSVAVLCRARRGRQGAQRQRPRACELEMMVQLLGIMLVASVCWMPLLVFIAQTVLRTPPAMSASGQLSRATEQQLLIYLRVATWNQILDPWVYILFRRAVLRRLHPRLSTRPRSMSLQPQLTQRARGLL
Experimental: as §1, with “tracheae” for “ilea”, “tracheal muscle strips in accordance with Takagi et al.” for “ileum preparations.”, “strips” for “ileum preparations”, “U-46619-induced” for “LTD4-induced”
as §2, with “strips,” for “ilea,”, “10^−10−[…] U-46619” for “0.05-3.5 ng/ml LTD4”, “U-46619” for “LTD4”, “cumlatively” for “cumulatively”

[3] = tested on: passively sensitized guinea pigs; test: Antiasthmatic effects: immediate asthmatic response of passively sensitized guinea pigs (airway resistance); assay type: in vivo, guinea pig; settings: 3 mg/kg i.v. 5 min before antigen inhalation (1% ovalbumin); airway resistance 5 min after inhalation
Experimental: The antiasthmatic effects were evaluated by the immediate asthmatic responses of passively sensitized guinea pigs. The previous day, the guinea pigs were sensitized by intravenous injections of a 10-fold diluted anti-DNP-ovalbumin guinea pig serum (guinea pig PCA titer; X1024) on the ears. The day of the test, after pre-treatment with pyrilamine (10 mg/kg i.p.), normal airway resitances were measured with a double flow plethysmograph in accordance with Pennock et al. The test substances (3 mg/kg) in DMSO were dissolved in 50% normal guinea pig serum-saline and intravenously injected from the ear vein 5 minutes before inhalation of the antigen. Immediate asthmatic responses were induced by 3 minutes of inhalational exposure to 1% ovalbumin in saline as the antigen from an ultrasonic neblizer, and the airway resistances were measured 5 minutes (4 to 6 minutes) after the inhalation. The results are expressed by the inhibition rates given by the following expression:
Inhibition rate (%)=(1−(A−B)/(C−D))×100
A: the airway resistance with a test substance after inhalation of the antigen,
B: the airway resistance with a test substance before inhalation of the antigen,
C: the airway resistance with a control after inhalation of the antigen,
D: the airway resistance with a control before inhalation of the antigen.

[4] = tested on: ICR mice; test: Acute toxicity test in ICR mice; assay type: in vivo, mouse

Structure (SMILES) | LTD4 inhibitory effect (pA2) [1] | TXA2 inhibitory effect (pA2) [2] | Antiasthmatic effect Inhibition rate (%) [3] | Acute toxicity (mortality), intravenous ([4]; intravenously 100 mg/kg) | Acute toxicity (mortality), oral ([4]; orally 1000 mg/kg) | Kb ([1]; read-out: LTD4 inhibitory effect (pA2) (converted)) | Kb ([2]; read-out: TXA2 inhibitory effect (pA2) (converted))
CC(C)c1csc(COc2cccc(CN(CCCCNS(=O)(=O)c3ccc(Cl)cc3)S(=O)(=O)c3ccccc3C(=O)O)c2)n1 [compound 1, 2-{N-[4-(4-chlorobenzenesulfonylamino)butyl]-N-{3-[(4-isopropyl-2-thiazolyl)methoxy]benzyl}}sulfamoylbenzoic acid] | 9.73 | 8.30 | 53.5% | none of the mice died | none of the mice died |  | 
CC(C)c1csc(COc2cccc(CN(CCCCNS(=O)(=O)c3ccc(Cl)cc3)S(=O)(=O)c3ccccc3-c3nnn[nH]3)c2)n1 [compound 91, 5-{2-{N-[4-(4-chlorobenzenesulfonylamino)butyl]-N-{3-[(4-isopropyl-2-thiazolyl)methoxy]benzyl}}sulfamoylphenyl}-1H-tetrazole] |  |  |  |  |  | 0.891 nM | 18.6 nM

From US6376671B1, “2-sulfamoylbenzoic acid derivatives” (Kaken Pharmaceutical Co., Ltd., priority 1997, dated 2002)
